Assay [1] can be described thus: Cross-linking of azido-GD3 by SFY incorporated Siglec-7v in vitro (Western blot). Format: biochemical. Conditions: 60 μM Siglec-7v(127SFY), 2 mM azido-GD3. On the procedure:
FIGS. 17A-17D provide a comparative study between NHSF pretreated Siglec-7v (Siglec-7v-SF) and Siglec-7v(127SFY). […] Siglec-7v(127SFY) or Siglec-7v-SF was incubated with azido-GD3 or azido-lac followed with Western blot detection. The azido group was click reacted with alkyne-biotin for Western blot detection of GD3/lac. […] Cells were treated with protein, washed, stained with a fluorescently labeled antibody specific for the His×6 tag appended at the C-terminus of Siglec-7v, and quantified with flow cytometry. […] Pre-stained BT-20 cells were incubated with 12 μM Siglec-7v-SF or Siglec-7v(127SFY) for 2 h. Cells were then washed and incubated with NK-92 cells for 4 h. Cells were stained with propidium iodide and NK cytotoxicity was evaluated by flow cytometry. Control group: no protein treatment. The line and error bar represent mean±SEM; n=3 independent batches of Siglec-7v proteins. *** p<0.001; NS, not significant, multiple t test.
We then determined if SFY could enable Siglec-7v to cross-link the bound glycan ligand. Inspired by NHSF-mediated cross-linking of azido-GD3 through Lys on Siglec-7v protein, we incorporated SFY into individual Lys sites of Siglec-7v, including sites 20, 24, 75, 104, 127, 131, and 135. […] Cross-linking of azido-GD3 was detected for Siglec-7v(104SFY) and Siglec-7v(127SFY). […]

For the next assay, the target named is T1, Siglec-7v with azido-GD3 (Homo sapiens, UniProt Q9Y286, C41S).
T1 construct: made in house; host or cells: E. coli BL21(DE3)
Nature of the assay: Small molecule mediated Siglec-7v cross-linking in vitro (Western blot). It is filed as biochemical. Conditions: for cross-linking of Siglec-7v with azido-GD3 (biotin band slightly above Siglec-7v): 60 μM Siglec-7v, 2 mM azido-GD3, 0.3 mM cross-linker, room temperature, UV for NHQM, HoQM. On the procedure:
We then investigated if the various function groups synthesized onto the cross-linkers (FIG. 1B) could achieve protein-glycan cross-linking using Siglec-7v and azido-GD3 as the model system. Siglec-7v (60 μM) was incubated with 2 mM azido-GD3 for 1 h at room temperature, followed by the addition of different cross-linkers to the solution. For samples treated with cross-linker NHQM or HoQM, UV light was applied to activate the cross-linker. Alkyne-biotin was subsequently clicked with azido-GD3 in the samples, and the biotin signal was detected with Western blot using streptavidin-HRP (FIG. 1E). […] (Ref. 20). The results here indicate that NHSF can be applied to cross-link protein-glycan interactions via the sulfonyl fluoride group.
To test if small molecule cross-linker could cross-link Siglec-7v with azido-GD3 and azido-lac, 60 μM Siglec-7v was incubated with 2 mM azido-GD3 or azido-lac in PBS buffer, pH 7.4 at room temperature for 1 hr. The solution was treated with or without 0.3 mM NHSF or NHBr or NHFS or NHQM or HoQM at room temperature for 1 hr, respectively. The NHQM or HoQM was then illuminated with or without UV for 15 mins at wavelength 365 nm. After that, 200 μM alkyne-biotin, 0.05 mM CuSO4, 1 mM THPTA and 1 mM sodium ascorbate were added and the reaction mixture was incubated at room temperature in dark environment for 0.5 hours. Samples were then boiled at 95° C. for 5 mins and run Western blot against 6× His tag antibody or streptavidin-horseradish peroxidase (HRP).
(In western blotting, separated proteins are transferred to a membrane and probed.)

T1 sequence (Q9Y286 with tags, fused parts or gaps C41S): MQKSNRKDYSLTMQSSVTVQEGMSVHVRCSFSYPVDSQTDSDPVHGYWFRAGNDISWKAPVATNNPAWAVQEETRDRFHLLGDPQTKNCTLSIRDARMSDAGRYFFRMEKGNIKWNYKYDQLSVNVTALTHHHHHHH

Consider `CC(=O)N[C@H]1[C@H]([C@H](O)[C@H](O)CO)O[C@@](O[C@H]2[C@@H](O)[C@@H](CO)O[C@@H](O[C@H]3[C@H](O)[C@@H](O)C(O)O[C@@H]3CO)[C@@H]2O)(C(=O)O)C[C@@H]1O` (stereo partly shown) [3′-sialyllactose], for which the “effect of added ligand on crosslinking of siglec-7v(127SFY) with azido-GD3” value in assay [1] is listed as “did not reduce”. With `O=C(c1ccc(OCc2ccccc2[N+](=O)[O-])c(C(F)F)c1)N1CCN(C(=O)c2ccc(OCc3ccccc3[N+](=O)[O-])c(C(F)F)c2)CC1` [HoQM], at Siglec-7v with azido-GD3, the “cross-linking of Siglec-7v with azido-GD3 (biotin band slightly above Siglec-7v)” value is “not”. Still for that read-out and setting: next, `O=C(Cc1ccc(OS(=O)(=O)F)cc1)ON1C(=O)CCC1=O` [NHFS, 2,5-dioxopyrrolidin-1-yl 2-(4-((fluorosulfonyl)oxy)-phenyl)acetate]: “not”; `O=C(ON1C(=O)CCC1=O)c1ccc(OCc2ccccc2[N+](=O)[O-])c(C(F)F)c1` [NHQM]: “not”. For the compound `O=C(CCNC(=O)c1ccc(S(=O)(=O)F)cc1)ON1C(=O)CC(S(=O)(=O)[O-])C1=O.[Na+]` (stereo not shown) [NHSF—C2, Sodium 1-((3-(4-(fluorosulfonyl)benzamido)propanoyl)oxy)-2,5-dioxopyrrolidine-3-sulfonate], the “cross-linking band intensity in comparison with NHSF” value on Siglec-7v with azido-GD3 (Siglec-7v with azido-GD3) worked out at 1.5 fold. Consider `O=C(CCCNC(=O)c1ccc(S(=O)(=O)F)cc1)ON1C(=O)CC(S(=O)(=O)[O-])C1=O.[Na+]` (stereo not shown) [NHSF—C3, Sodium 1-((4-(4-(fluorosulfonyl)benzamido)butanoyl)oxy)-2,5-dioxopyrrolidine-3-sulfonate], for which the “cross-linking efficiency on further increase of the linker length” value on Siglec-7v with azido-GD3 (Siglec-7v with azido-GD3) was “lowered”. As for `O=C(CCCCCCCNC(=O)c1ccc(S(=O)(=O)F)cc1)ON1C(=O)CC(S(=O)(=O)[O-])C1=O.[Na+]` (stereo not shown) [NHSF—C7, sodium 1-((8-(4-(fluorosulfonyl)benzamido)octanoyl)oxy)-2,5-dioxopyrrolidine-3-sulfonate], the “cross-linking efficiency on further increase of the linker length” value on Siglec-7v with azido-GD3 (Siglec-7v with azido-GD3) is listed as “lowered”.

(Values after US20240252652A1, “PROTEINS HAVING UNNATURAL AMINO ACIDS AND METHODS OF USE” (The Regents of the University of California, priority 2021, published 2024).)
